Experimental data from ChEMBL document CHEMBL1201862, “PubChem BioAssay data set” (2004).
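Dose response: 5 concentrations. Exposure: 48 h. Format: 96-well plates. Endpoint: linear interpolation; highest concentration if not reached. GI50: concentration for 50% inhibition of growth.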 The source made the active and inactive calls. No stated cut-off is given here; in the data, active = GI50 up to about 1.1 µM and inactive = higher.

Columns and labels:
Test in all cases: NCI tumour cell line growth inhibition, 48 h
[1] = system: A549
[2] = system: HL-60
[3] = system: HCT-15
[4] = system: MDA-MB-435
[5] = system: IGROV-1
[6] = system: OVCAR-8
[7] = system: NCI/ADR-RES
[8] = system: NCI-H226
[9] = system: MOLT-4
[10] = system: KM12
[11] = system: MDA-N
[12] = system: MDA-MB-231
[13] = system: K562
[14] = system: BT-549
[15] = system: Malme-3M
[16] = system: EKVX
[17] = system: NCI-H23
[18] = system: SF-268
[19] = system: UACC-257
[20] = system: OVCAR-4

Row | Structure (SMILES) | GI50 [1] | GI50 [2] | GI50 [3] [µM] | GI50 [4] | GI50 [5] | GI50 [6] | GI50 [7] | GI50 [8] | GI50 [9] | GI50 [10] | GI50 [11] | GI50 [12] | GI50 [13] | GI50 [14] | GI50 [15] | GI50 [16] | GI50 [17] | GI50 [18] | GI50 [19] | GI50 [20]
1 | CC(C)(Cl)C(Br)CC/C(=C/CBr)CBr.CC(C)(Cl)C(Br)CC/C(=C\CBr)CBr (stereo not given) | 12.5 µM (inactive) | 0.757 µM (active) | 1.95 | 1.87 µM (inactive) | 2.28 µM (inactive) | 3.01 µM (inactive) | 2.86 µM (inactive) | 24.6 µM (inactive) | 1.14 µM (inactive) | 2.36 µM (inactive) | 2.62 µM (inactive) | 1.89 µM (inactive) | 1.71 µM (inactive) | 2.77 µM (inactive) | 1.78 µM (inactive) | 24.8 µM (inactive) | 2.83 µM (inactive) | 2.14 µM (inactive) | 4.37 µM (inactive) | 2.25 µM (inactive)
2 | Cn1c2ccccc2c2cc(N3CCCC3)c3c(c21)C(=O)N(c1ccccc1)C3=O | > 100 µM (inactive) | > 100 µM (inactive) | > 100 | > 100 µM (inactive) | > 100 µM (inactive) | > 100 µM (inactive) | > 100 µM (inactive) | 47 µM (inactive) | > 100 µM (inactive) | > 100 µM (inactive) | > 100 µM (inactive) | 66.4 µM (inactive) | > 100 µM (inactive) | > 100 µM (inactive) | > 100 µM (inactive) | 86.7 µM (inactive) | > 100 µM (inactive) | 88.1 µM (inactive) | > 100 µM (inactive) | 38.9 µM (inactive)
3 | Cc1cc2[nH]c3c(C#N)c4c(c(=O)n3c2cc1C)CCCC4 | > 100 µM (inactive) | 96.6 µM (inactive) | > 100 | 67.3 µM (inactive) | > 100 µM (inactive) | > 100 µM (inactive) | > 100 µM (inactive) | > 100 µM (inactive) | > 100 µM (inactive) | > 100 µM (inactive) | 87.9 µM (inactive) | > 100 µM (inactive) | 64.9 µM (inactive) | > 100 µM (inactive) | > 100 µM (inactive) | > 100 µM (inactive) | > 100 µM (inactive) | 79.3 µM (inactive) | > 100 µM (inactive) | > 100 µM (inactive)
4 | Cc1[nH]c2ncn(Nc3ccccc3)c(=N)c2c1Cc1ccccc1 | 1.48 µM (inactive) | 1.73 µM (inactive) | 4.34 | 0.491 µM (active) | 3.85 µM (inactive) | 32.9 µM (inactive) | 29.6 µM (inactive) | > 55 µM (inactive) | 35.6 µM (inactive) | 5.31 µM (inactive) | 0.191 µM (active) | 61.7 µM (inactive) | 0.0578 µM (active) | 3.34 µM (inactive) | > 38.7 µM (inactive) | 5.89 µM (inactive) | 31.8 µM (inactive) | > 100 µM (inactive) | 0.462 µM (active) | > 27.5 µM (inactive)
5 | C[N+](C)(CCNc1ccc(NCC[N+](C)(C)Cc2ccc([N+](=O)[O-])cc2)c2c1C(=O)c1ccccc1C2=O)Cc1ccc([N+](=O)[O-])cc1 | > 100 µM (inactive) | > 100 µM (inactive) | > 100 | > 100 µM (inactive) | > 100 µM (inactive) | > 100 µM (inactive) | > 100 µM (inactive) | > 100 µM (inactive) | > 100 µM (inactive) | > 100 µM (inactive) | > 100 µM (inactive) | > 100 µM (inactive) | 70.3 µM (inactive) | > 100 µM (inactive) | > 100 µM (inactive) | > 100 µM (inactive) | > 100 µM (inactive) | > 100 µM (inactive) | > 100 µM (inactive) | > 100 µM (inactive)
6 | C=CCN1C(=O)CNC1=S | > 100 µM (inactive) | 23.7 µM (inactive) | > 100 | > 100 µM (inactive) | > 100 µM (inactive) | > 100 µM (inactive) | > 100 µM (inactive) | > 100 µM (inactive) | > 100 µM (inactive) | > 100 µM (inactive) | > 100 µM (inactive) | > 100 µM (inactive) | 40.6 µM (inactive) | > 100 µM (inactive) | > 100 µM (inactive) | > 100 µM (inactive) | > 100 µM (inactive) | > 100 µM (inactive) | > 100 µM (inactive) | > 100 µM (inactive)
7 | COc1ccc(SCc2cc(OC)c(OC)c(OC)c2)cc1OC | 43.8 µM (inactive) | 30.8 µM (inactive) | 34 | 11.2 µM (inactive) | 80.4 µM (inactive) | > 80.2 µM (inactive) | 32.4 µM (inactive) | 51.6 µM (inactive) | 46.2 µM (inactive) | 37.5 µM (inactive) | 24.5 µM (inactive) | 57 µM (inactive) | 42.9 µM (inactive) | 30 µM (inactive) | 55.2 µM (inactive) | 43.4 µM (inactive) | 27.5 µM (inactive) | > 100 µM (inactive) | 45.6 µM (inactive) | 22 µM (inactive)
